Patent publication US12478628B2, “Germ cell nuclear factor ligands and methods of use thereof” (Saint Louis University, priority 2020, dated 2025)

Target: T1, GCNF LBD (Homo sapiens, UniProt Q15406)
T1 construct: Human GCNF (NR6A1) LBD (residues 248-480); made in house; host or cells: E. coli BL(21) DE3
T1 sequence (Q15406 248-480): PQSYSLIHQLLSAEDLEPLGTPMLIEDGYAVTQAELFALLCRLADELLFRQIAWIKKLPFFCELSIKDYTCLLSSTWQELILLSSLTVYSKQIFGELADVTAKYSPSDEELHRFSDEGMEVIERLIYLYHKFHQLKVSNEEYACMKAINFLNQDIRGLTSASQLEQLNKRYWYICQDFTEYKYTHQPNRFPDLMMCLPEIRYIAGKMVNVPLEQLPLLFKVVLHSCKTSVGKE
Test: Differential scanning fluorimetry (DSF) of GCNF LBD
Type: binding
Settings: additional ligand screening
Method: DSF Assay. GCNF LBD (5 μM) were mixed with 1× Sypro orange (Invitrogen) in DSF buffer (50 mM HEPES, 50 mM KCl, 5 mM TCEP, 0.5 mM EDTA, pH 7.5). Test compounds was added at 1:1 molar equivalence as protein or replaced with DMSO control. Ten microliters (10 μL)×5 replicates for each sample were plated on 384-well PCR microplate. No protein control and no ligand references were also run simultaneously in 5 replicates on the same plate. A total of 450 compounds (Life Chemicals) previously selected from a nuclear-receptor-biased library targeting REV-ERB were analyzed. Thermal stability was assessed on a Quantstudio 6 instrument (Biosystems) by ramping the temperature from 25° C. to 95° C. at 0.05° C./s and protein melt shifts were subsequently quantified by Boltzmann-derived melting temperature (Tm) using the Protein Thermal Shift (ThermoFisher) software. Positive hits were identified when a thermal shift (ΔTm) of at least 2° C. was observed.
For the DSF ligand titration assay, ligands 30, 34 and 80 were titrated against 5 μM GCNF LBD with a ligand concentration series of 30, 20, 13, 9, 6, 4, 2.6, 1.7 and 0 μM from a 20 mM DMSO stock solution. DSF assay and analysis was then performed as described above. All DSF data were reported as mean±SEM.

SMILES | change in Tm of GCNF [°C]
CCOC(=O)C(C)Oc1cccc2c(=O)n(CC(=O)Nc3c(C)cc(C)cc3C)ccc12 (stereo not drawn) [R5] | 1.6
COC(=O)COc1cccc2c(=O)n(CC(=O)NCCc3ccc(OC)c(OC)c3)ccc12 [R9] | 0.8
CCCCCn1c(SCC(=O)CC(=O)OCC)nc2cc(C(=O)NCc3ccco3)ccc2c1=O [R12] | 0.8
O=C1CCCC2=C1C(c1ccc(O)cc1)C1=C(CCCC1=O)O2 [U1] | 0.9
COc1ccc(NC(=O)N2CCC3(CC2)N=C(SCc2ccccc2)C(c2ccccc2)=N3)cc1OC [U2] | 2.3
CC(=O)Nc1ccc(NCC(O)Cn2c3ccccc3n3c(=O)cc(C)c(C#N)c23)cc1 (stereo not drawn) [U7] | 1.0
